What is called AUC(0-t) is exposure summed from dosing to a finite time, without extrapolation to infinity. A high value points to more exposure. As usually defined, the Cmax is the maximum level reached in the sampled fluid or tissue. One may read the clearance as a measure of how efficiently the substance is removed, as volume per time. Read a high clearance as efficient removal. As usually defined, the half-life is how long it takes for the measured level to halve. A word on the CL/F: it is clearance divided by bioavailability, as obtained after extravascular dosing. As usually defined, the EC50 is the midpoint of the concentration-response curve.

Structures are written as SMILES.

A short description of series [1]: Pharmacokinetic experiment in SD rats. The note with it: p.o, 5 mg/kg vs i.v, 0.5 mg/kg.
Method: (§1) Example 59: Pharmacokinetic Experiment of Compounds in SD Rats
(§2) SD rats, male, 6-8 weeks old, purchased from Zhejiang Vital River Laboratory Animal Technology Co., Ltd., production license No.: SCXK (Zhejiang) 2019-0001. The animals were maintained in an SPF-grade animal room of Hangzhou Bio-Sincerity Pharma-Tech Co., Ltd., with the experimental animal use license No. of SYXK (Zhejiang) 2021-0014. The animals were used after being acclimatized for at least one week. All experiments were performed in strict compliance with the regulations on experimental animals.
(§3) Four hours after administration, food was provided.
(§4) After administration to SD rats, about 300 µL of blood was collected from the orbit of each animal and anticoagulated with EDTA-Na2. […] The collected blood was placed in an ice bath and centrifuged within 1 h to separate plasma (centrifugation conditions: 2000× g, 10 min, 4 °C). 50 µL of plasma sample was taken, subjected to protein precipitation, and then assayed by UHPLC-MS. The assay data were analyzed and processed using WinNonLin8.1 pharmacokinetic software to obtain pharmacokinetic parameters.
The nature of another series: in vivo. As to conditions: male, SD, rat, plasma.
A further series relates to HT-29 cells. The series is described as follows: Inhibition of TNF-α-induced necroptosis of HT-29 cells (SRB method). As to conditions: Homo sapiens, HT-29, TNF-α 20 ng/mL + BV6 2 µM + Z-VAD-FMK 20 µM, 18 h. Format: cell-based, human. In a few lines: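 HT-29 cells (3 × 10^4/well, 24 h) were treated 18 h with compound (8 three-fold dilutions, 1000.00-0.46 nM, duplicate) plus TNF-α 20 ng/mL, BV6 2 µM and Z-VAD-FMK 20 µM final, at 37 °C. Viability was read by SRB absorbance; EC50 values were fitted.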
For orientation: Sulforhodamine B stains cellular protein and so reports cell mass.

Another series relates to U937 cells. The series can be described thus: Inhibition of TNF-α-induced necroptosis of U937 cells (CCK-8 assay). Format: cell-based, human. As to conditions: Homo sapiens, U-937, TNF-α 20 ng/mL + BV6 2 µM + Z-VAD-FMK 20 µM, 18 h. In a few lines:
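U937 cells (3.6 × 10^4/well) rested 6 h, then exposed to TNF-α 20 ng/mL, BV6 2 µM and Z-VAD-FMK 20 µM plus compound (8-point 3-fold series, 1000–0.46 nM, duplicate) for 18 h. Viability by CCK-8, absorbance at 450 nm after 2-4 h at 37 °C; EC50 calculated.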
(Tetrazolium assays rely on reduction of a dye to a coloured formazan, in cell work by metabolically active cells.)

Method for in vivo: as §1, §2, §3, §4

Turning to `O=C(NC1CCc2cccc3c2N(CC3)C1=O)c1ncn(Cc2c(F)cccc2F)n1` (stereo not shown) [Example 13 in CN20191051 8248X, 1-(2,6-difluorobenzyl)-N-(4-oxo-1,2,3,4,6,7-hexahydroazepino[3,2,1-hi]indol-3-yl)-1H-1,2,4-triazole-3-carboxamide, reference compound], the “Fabs (%)” value in series [1] is recorded as 12.55 ± 6.41%. Also, in “in vivo” (intravenous, 0.5 mg/kg), the AUC(0-t) was 271 ± 38 ng·h/mL, the concentration peaked (Cmax) at 983 ± 106 ng/mL, the clearance was determined as 31 ± 4.47 mL/min/kg and the half-life was 26.4 ± 15.6 min. For the same compound, in “in vivo” (oral, 5 mg/kg), the area under the curve AUC(0-t) came out at 340 ± 174 ng·h/mL, the CL/F is 8.37 ± 4.01 mL/min/kg, the peak level (Cmax) was 467 ± 215 ng/mL and the half-life was 20.4 ± 8.4 min.
With `O=C(NC1CCc2cc(C#Cc3ccncc3)cc3c2N(CC3)C1=O)c1nnc(Cc2ccccc2Cl)[nH]1` (stereo not shown) [Compound I-10, 5-(2-chlorobenzyl)-N-(4-oxo-9-(pyridin-4-ylethynyl)-1,2,3,4,6,7-hexahydroazepino[3,2,1-hi]indol-3-yl)-4H-1,2,4-triazole-3-carboxamide], the figures for the 50% effective concentration (EC50) in the series on HT-29 cells and in the series on U937 cells were above 200 nM and 100 to 200 nM, respectively.
`O=C(NC1CCc2cc(C#CC3CCNCC3)cc3c2N(CC3)C1=O)c1ncn(Cc2c(F)cccc2F)n1` (stereo not shown) [III-15, 1-(2,6-difluorobenzyl)-N-(4-oxo-9-(piperidin-4-ylethynyl)-1,2,3,4,6,7-hexahydroazepino[3,2,1-hi]indol-3-yl)-1H-1,2,4-triazole-3-carboxamide]: the EC50 in the series with HT-29 cells and in the series with U937 cells was below 5 nM each time.
Turning to `O=C(NC1CCc2cc(C#Cc3ccncc3)cc3c2N(CC3)C1=O)c1ncn(Cc2c(F)cccc2F)n1` (stereo not shown) [III-2, 1-(2,6-difluorobenzyl)-N-(4-oxo-9-(pyridin-4-ylethynyl)-1,2,3,4,6,7-hexahydroazepino[3,2,1-hi]indol-3-yl)-1H-1,2,4-triazole-3-carboxamide], the EC50 in the series on HT-29 cells was 10 to 100 nM; with U937 cells it was below 5 nM.
Turning to `O=C(NC1CCc2cc(C#Cc3cccnc3)cc3c2N(CC3)C1=O)c1nnc(Cc2ccccc2)[nH]1` (stereo not shown) [Compound I-3, 5-benzyl-N-(4-oxo-9-(pyridin-3-ylethynyl)-1,2,3,4,6,7-hexahydroazepino[3,2,1-hi]indol-3-yl)-4H-1,2,4-triazole-3-carboxamide], the concentration giving a half-maximal response (EC50) is 10 to 100 nM in the series with HT-29 cells and 100 to 200 nM in the series on U937 cells.
Turning to `Cc1ccccc1Cn1cnc(C(=O)NC2CCc3cc(C#Cc4cnn(C)c4)cc4c3N(CC4)C2=O)n1` (stereo not shown) [III-13, N-(9-((1-methyl-1H-pyrazol-4-yl)ethynyl)-4-oxo-1,2,3,4,6,7-hexahydroazepino[3,2,1-hi]indol-3-yl)-1-(2-methylbenzyl)-1H-1,2,4-triazole-3-carboxamide], the EC50 was 5 to 10 nM in the series on HT-29 cells and below 5 nM in the series on U937 cells.
For `Cn1cc(C#Cc2cc3c4c(c2)CCN4C(=O)C(NC(=O)c2nnc(Cc4ccccc4)[nH]2)CC3)cn1` (stereo not shown) [Compound I-5, 5-benzyl-N-(9-((1-methyl-1H-pyrazol-4-yl)ethynyl)-4-oxo-1,2,3,4,6,7-hexahydroazepino[3,2,1-hi]indol-3-yl)-4H-1,2,4-triazole-3-carboxamide], the EC50 in the series on HT-29 cells lay in the range of 100 to 200 nM; in the series on U937 cells it was 10 to 100 nM.
On to `C=Cn1ncc(C#Cc2cc3c4c(c2)CCN4C(=O)C(NC(=O)c2ncn(Cc4c(F)cccc4F)n2)CC3)c1C=O` (stereo not shown) [III-28, 1-(2,6-difluorobenzyl)-N-(9-((5-formyl-1-vinyl-1H-pyrazol-4-yl)ethynyl)-4-oxo-1,2,3,4,6,7-hexahydroazepino[3,2,1-hi]indol-3-yl)-1H-1,2,4-triazole-3-carboxamide], for which the 50% effective concentration (EC50) in the series on HT-29 cells and in the series on U937 cells was below 5 nM throughout.
As to `Cn1cc(C#Cc2cc3c4c(c2)CCN4C(=O)C(NC(=O)c2ccn(Cc4c(F)cccc4F)n2)CC3)cn1` (stereo not shown) [XIII-1, 1-(2,6-difluorobenzyl)-N-(9-((1-methyl-1H-pyrazol-4-yl)ethynyl)-4-oxo-1,2,3,4,6,7-hexahydroazepino[3,2,1-hi]indol-3-yl)-1H-pyrazole-3-carboxamide], the EC50 in the series on HT-29 cells and in the series on U937 cells was 10 to 100 nM throughout.
For the compound `O=C(NC1CCc2cc(C#Cc3ccncc3)cc3c2N(CC3)C1=O)c1nnc(Cc2ccc(F)cc2)[nH]1` (stereo not shown) [Compound I-8, 5-(4-fluorobenzyl)-N-(4-oxo-9-(pyridin-4-ylethynyl)-1,2,3,4,6,7-hexahydroazepino[3,2,1-hi]indol-3-yl)-4H-1,2,4-triazole-3-carboxamide], the EC50 in the series with HT-29 cells and with U937 cells was above 200 nM in each case.
In the case of `Cn1cc(C#Cc2cc3c4c(c2)CCN4C(=O)C(NC(=O)c2ccc(Oc4ccccc4)cn2)CC3)cn1` (stereo not shown) [Compound V-2, N-(9-((1-methyl-1H-pyrazol-4-yl)ethynyl)-4-oxo-1,2,3,4,6,7-hexahydroazepino[3,2,1-hi]indol-3-yl)-5-phenoxypicolinamide], the concentration for a half-maximal effect (EC50) in the series with HT-29 cells and in the series on U937 cells was above 200 nM each time.
With `O=C(NC1CCc2cc(C#Cc3cnn4c3COCC4)cc3c2N(CC3)C1=O)c1ncn(Cc2c(F)cccc2F)n1` (stereo not shown) [III-27, 1-(2,6-difluorobenzyl)-N-(9-((6,7-dihydro-4H-pyrazolo[5,1-c] [1,4]oxazin-3-yl)ethynyl)-4-oxo-1,2,3,4,6,7-hexahydroazepino[3,2,1-hi]indol-3-yl)-1H-1,2,4-triazole-3-carboxamide], the EC50 in the series on HT-29 cells and in the series with U937 cells was below 5 nM in each case.

(Values after patent EP4772510A2, “BENZAZEPINONE COMPOUND AND USE THEREOF” (HANGZHOU BIO-SINCERITY PHARMA-TECHCO., LTD., priority 2023, dated 2025).)
